≈ marks a conversion by molar mass, not a printed value.
Columns and labels:
C. krusei ATCC 6258 [1] = assay: Broth microdilution MIC (CLSI), Examples 3 and 4; details: ATCC 6258 wild-type; 24 h, ~50% inhibition
Method: (§1) Antifungal susceptibility testing. Candida strains were cultured aerobically at 35° C. on SDA plates or in RPMI 1640 broth (pH 7.0). […] MIC assays were performed in triplicate.

C. parapsilosis CP02 [2] = assay: Broth microdilution MIC (CLSI), Examples 3 and 4; details: CP02 wild-type; 24 h, ~50% inhibition
Method: as §1

C. parapsilosis CP02 [3] = assay: microbe, parasite or virus in culture; format: cell-based, Candida parapsilosis
C. krusei ATCC 6258 [4] = assay: microbe, parasite or virus in culture; format: cell-based, Candida krusei
C. albicans NRRL Y-477 [5] = assay: microbe, parasite or virus in culture; format: cell-based, Candida albicans
[6] = test system: C. glabrata ATCC 90030, ATCC 2001; assay: microbe, parasite or virus in culture; format: cell-based, Candida glabrata
[7] = test system: azole-resistant Candida albicans R357 strain; assay: microbe, parasite or virus in culture; format: cell-based
[8] = Solubility of test articles in vehicle, visual observation (Table 22); format: physicochemical
Method: Test Articles. […] Amphotericin B and fluconazole were in powder form. Amphotericin B was dissolved in 0.9% NaCl. Fluconazole was dissolved in water (WFI: water for injection).

C. albicans NRRL Y-477 [9] = assay: Broth microdilution MIC (CLSI), Examples 3 and 4
Method: Antifungal susceptibility testing. […] MIC assays were performed in triplicate.

[10] = test system: azole-resistant Candida albicans (R357); assay: Disseminated infection model in neutropenic ICR mice, kidney fungal counts (Example 10, Tables 22-23); format: in vivo
[11] = test system: Aspergillus fumigatus (ATCC 13073); assay: Neutropenic mouse model of disseminated aspergillosis, survival; format: in vivo; details: in vivo
[12] = test system: C. glabrata ATCC 90030, ATCC 2001; assay: Broth microdilution MIC (CLSI), Examples 3 and 4; details: for Broth MIC: 24 h, ~50% inhibition
Method: as §1

C[C@@H]1[C@H](O)[C@@H](C)/C=C/C=C/C=C/C=C/C=C/C=C/C=C/[C@H](O[C@@H]2O[C@H](C)[C@@H](O)[C@H](N)[C@@H]2O)C[C@@H]2O[C@](O)(C[C@@H](O)C[C@@H](O)[C@H](O)CC[C@@H](O)C[C@@H](O)CC(=O)O[C@H]1C)C[C@H](O)[C@H]2C(=O)O [AMB, amphotericin B]
Broth MIC (C. krusei ATCC 6258 [1]): 1 µg/mL | Broth MIC (C. parapsilosis CP02 [2]): 0.5 µg/mL | MIC (C. parapsilosis CP02 [3]; CP02 P20-1, selecting drug ANID): 0.5 µg/mL (≈ 0.541 µM) | MIC (C. parapsilosis CP02 [3]; CP02 P20-1, selecting drug CAS): 0.5 µg/mL (≈ 0.541 µM) | MIC (C. parapsilosis CP02 [3]; CP02 P20-1, selecting drug CMP1): 0.5 µg/mL (≈ 0.541 µM) | MIC (C. krusei ATCC 6258 [4]; ATCC 6258 P20-2, selecting drug ANID): 1 µg/mL (≈ 1.08 µM) | MIC (C. krusei ATCC 6258 [4]; ATCC 6258 P20-2, selecting drug CAS, Fks1 HS2 I1366S): 1 µg/mL (≈ 1.08 µM) | MIC (C. krusei ATCC 6258 [4]; ATCC 6258 P20-2, selecting drug CMP1, Fks1 HS2 I1366S): 1 µg/mL (≈ 1.08 µM) | MIC (C. albicans NRRL Y-477 [5]; NRRL Y-477 P20-1, selecting drug ANID, Fks1 HS1 S645Y, 48 h read): 0.5 µg/mL (≈ 0.541 µM) | MIC (C. albicans NRRL Y-477 [5]; NRRL Y-477 P20-1, selecting drug CAS): 0.25 µg/mL (≈ 0.271 µM) | MIC (C. albicans NRRL Y-477 [5]; NRRL Y-477 P20-1, selecting drug CMP1, 48 h read): 0.5 µg/mL (≈ 0.541 µM) | MIC ([6]; ATCC 2001 P20-2, selecting drug ANID, Fks1 HS1 D632Y): 1 µg/mL (≈ 1.08 µM) | MIC ([6]; ATCC 2001 P20-2, selecting drug CAS): 0.5 µg/mL (≈ 0.541 µM) | MIC ([6]; ATCC 2001 P20-2, selecting drug CMP1): 0.25 µg/mL (≈ 0.271 µM) | MIC ([6]; ATCC 90030 P20-1, selecting drug ANID, Fks2 HS1 D666I, 48 h read): 0.5 µg/mL (≈ 0.541 µM) | MIC ([6]; ATCC 90030 P20-1, selecting drug CAS, Fks2 HS1 F659I D666Y, 48 h read): 0.25 µg/mL (≈ 0.271 µM) | MIC ([6]; ATCC 90030 P20-2, selecting drug CMP1): 0.5 µg/mL (≈ 0.541 µM) | Susceptibility (CLSI) ([7]; C. albicans R357): S | MIC ([7]; endpoint 100% inhibition): 0.5 µg/mL (≈ 0.541 µM) | Solubility [8]: S | MIC (C. albicans NRRL Y-477 [9]; NRRL Y-477 spontaneous mutant, Fks1 HS1 S645P): 0.25 µg/mL (≈ 0.271 µM) | Broth MIC (C. albicans NRRL Y-477 [9]; NRRL Y-477 wild-type, 24 h, ~50% inhibition): 0.5 µg/mL | reduction in fungal counts ([10]; 3 mg/kg IV once, 72 hr time point): two log reduction | antimicrobial effect versus vehicle (one-way ANOVA, Dunnett's test) ([10]; 48 and 72 hr after infection, Compound 1 3, 10, 30 mg/kg IP, amphotericin B 1 and 3 mg/kg IV, fluconazole 20 mg/kg PO): Significant effects | survival versus vehicle [11]: significantly longer survival than vehicle | MIC ([12]; ATCC 2001 spontaneous mutant, Fks2 HS1 D666N): 0.5 µg/mL (≈ 0.541 µM) | MIC ([12]; ATCC 2001 spontaneous mutant, Fks2 HS1 D666Y): 0.5 µg/mL (≈ 0.541 µM) | MIC ([12]; ATCC 2001 spontaneous mutant, Fks2 HS1 R665G): 0.25 µg/mL (≈ 0.271 µM) | MIC ([12]; ATCC 2001 spontaneous mutant, Fks2 HS1 S663F): 0.25 µg/mL (≈ 0.271 µM) | MIC ([12]; ATCC 2001 spontaneous mutant, Fks2 HS1 ΔF659): 0.25 µg/mL (≈ 0.271 µM) | MIC ([12]; ATCC 2001 spontaneous mutant, Fks2 HS2 R1378S): 0.25 µg/mL (≈ 0.271 µM) | Broth MIC ([12]; ATCC 2001 wild-type): 0.5 µg/mL | MIC ([12]; ATCC 90030 spontaneous mutant, Fks2 HS1 D666H): 0.5 µg/mL (≈ 0.541 µM) | MIC ([12]; ATCC 90030 spontaneous mutant, Fks2 HS1 ΔF659): 0.5 µg/mL (≈ 0.541 µM) | Broth MIC ([12]; ATCC 90030 wild-type): 0.5 µg/mL
